15 compounds from article PMC12314051, “Design, antiproliferative potency, and in silico studies of novel 5-methylfuran-3-yl)thio)-3-phenylquinazolin-4(3H)-one based derivatives as potential EGFR inhibitors” (Scientific Reports, 2025) can be followed below.

As a reminder, the IC50 is the concentration at which inhibition is half-maximal.

Data set [1] concerns HepG-2 cells. Description: MTT cytotoxicity assay, HepG-2. The data set is classed as cell-based. The note with it: Homo sapiens. The protocol: (§1) Following the published protocol[75]–[77], the cytotoxic effects of the newly synthesized quinazolinones 1–10 were assessed in vitro using the MTT test method on human liver HepG-2, breast MCF-7, colorectal HCT-116 cancer cell lines, and normal diploid cell line WI-38. There were further details in the supplemetary file.
(§2) The cell lines were obtained from Karolinska Center, Department of Oncology and Pathology, Karolinska Institute and Hospital, Stockholm, Sweden, as follows: human liver HepG-2, breast MCF-7, and colorectal HCT-116 cancer cell lines and human diploid cell line WI-38. Exponentially, cells were placed in 10^4 cells/ well for 24 h, and then fresh medium containing different concentrations of the tested sample. two-fold serial dilution of the tested sample was added using a multichannel pipette. Moreover, all cells were cultivated at 37 °C, 5% CO2 and 95% humidity. Also, incubation of control cells occurred at 37 °C. However, after incubation for 24 h different concentrations of the sample (100, 50, 25, 12.5, 6.25, 3.125, and 1.56 µM) were added, and continued the incubation for 48 h, then, add the crystal violet solution of 1% to each well for 0.5 h to examine viable cells. Rinse the wells using water until no stain. After that, add 30% glacial acetic acid to all wells with shaking plates on a Microplate reader (TECAN, Inc.) to measure the absorbance, using a test wavelength of 490 nm. Besides, compare the treated samples with the control cell. The cytotoxicity was estimated by IC50 in (μM), the concentration that inhibits 50% of growth of cancer cell.
For orientation: Formazan colour is commonly taken as a measure of viable cells.

Data set [2] concerns HCT-116 cells. Description: MTT cytotoxicity assay, HCT-116. The data set is classed as cell-based. Conditions: Homo sapiens. Here is the method: as §1, §2
For data set [3], the system named is MCF-7 cells. Description: MTT cytotoxicity assay, MCF-7. The class given is cell-based. Conditions: Homo sapiens. Here is the method: as §1, §2
In data set [4] the test system is WI-38 cells. Description: MTT cytotoxicity assay, normal WI-38. The class given is cell-based. The note with it: Homo sapiens. The protocol:
. […]. Furthermore, the MTT assay was employed to examine the safety profiles of the cytotoxic activity against the normal human diploid cell line WI-38 (Table 1). […]. They could therefore be considered safe chemotherapeutic agents.
as §1, §2

Data set [5] deals with HepG-2, HCT-116 and MCF-7 cell lines. Description: MTT cytotoxicity, all screened cancer cell lines together (SAR summary). The class given is cell-based, human. Here is the method: […]. In addition, replacement of acetyl group in 2 with pyrazoline moiety with free N-1 in 7 or bound to thiazole in 9, yielded weak activity.
as §1, §2

In data set [6] the target is T1, EGFR (Homo sapiens, UniProt P00533).
T1 construct: purchased Abcam
Description: In vitro EGFR inhibition assay. The data set is classed as biochemical. Conditions: for IC50: EGFR, read-out: IC50 (mean ± SD).

Data set [7] has as its target T2, VEGFR-2 (Homo sapiens, UniProt P35968).
T2 construct: purchased Ray Biotech
Description: In vitro VEGFR-2 inhibition assay (ELISA kit). The class given is biochemical. The note with it: read-out: IC50 (mean ± SD). The protocol: Quinazolinone-based targets 1, 6b, 8a, and 10 were chosen for further evaluation of their in vitro inhibitory activity against EGFR and VEGFR-2 because of their exceptional cytotoxic outcomes, with the goal of clarifying their mode of action. […]. VEGFR-2 assay: the effect of the most promising cytotoxic compounds 1, 6b, 8a, and 10 was evaluated for their in vitro inhibitory activity against Human VEGFR-2 using ELISA kit according to manufacturer's instructions (Ray Biotech). This assay employs an antibody specific for human VEGFR-2 coated on a 96-well plate. Samples and standards were added to the wells and incubated over night at 4 °C with gentle shaking. The wells were washed and biotinylated antibody was added followed by incubation for one hour at room temperature. After washing away unbound biotinylated antibody, HRP conjugated streptavidin was pipetted to the wells and
incubated at room temperature for 45 min. The wells were then washed; TMB substrate solution was added and incubated for 30 min. The color developed was in proportion to the amount of VEGFR-2 bound. The Stop Solution was added and the intensity of the color was measured at 450 nm. Percent inhibition was calculated by the comparison of compounds treated to control incubations. […]
On the technique in general: In an ELISA, binding on a coated surface is turned into a signal by an enzyme label.

The mark [8] stands for this setting: HepG2, HepG-2, MTT assay, read-out: IC50 (mean ± SD).
The mark [9] stands for this setting: HCT-116, MTT assay, read-out: IC50 (mean ± SD).
Where [10] appears, read: MCF7, MCF-7, MTT assay, read-out: IC50 (mean ± SD).
Where [11] appears, read: normal WI-38, MTT assay, read-out: IC50 (mean ± SD).
Where [12] appears, read: HepG-2, HCT-116 and MCF-7 cell lines.

Where two headings read alike, the source gives them in different places.

T1 sequence (P00533 25-1210): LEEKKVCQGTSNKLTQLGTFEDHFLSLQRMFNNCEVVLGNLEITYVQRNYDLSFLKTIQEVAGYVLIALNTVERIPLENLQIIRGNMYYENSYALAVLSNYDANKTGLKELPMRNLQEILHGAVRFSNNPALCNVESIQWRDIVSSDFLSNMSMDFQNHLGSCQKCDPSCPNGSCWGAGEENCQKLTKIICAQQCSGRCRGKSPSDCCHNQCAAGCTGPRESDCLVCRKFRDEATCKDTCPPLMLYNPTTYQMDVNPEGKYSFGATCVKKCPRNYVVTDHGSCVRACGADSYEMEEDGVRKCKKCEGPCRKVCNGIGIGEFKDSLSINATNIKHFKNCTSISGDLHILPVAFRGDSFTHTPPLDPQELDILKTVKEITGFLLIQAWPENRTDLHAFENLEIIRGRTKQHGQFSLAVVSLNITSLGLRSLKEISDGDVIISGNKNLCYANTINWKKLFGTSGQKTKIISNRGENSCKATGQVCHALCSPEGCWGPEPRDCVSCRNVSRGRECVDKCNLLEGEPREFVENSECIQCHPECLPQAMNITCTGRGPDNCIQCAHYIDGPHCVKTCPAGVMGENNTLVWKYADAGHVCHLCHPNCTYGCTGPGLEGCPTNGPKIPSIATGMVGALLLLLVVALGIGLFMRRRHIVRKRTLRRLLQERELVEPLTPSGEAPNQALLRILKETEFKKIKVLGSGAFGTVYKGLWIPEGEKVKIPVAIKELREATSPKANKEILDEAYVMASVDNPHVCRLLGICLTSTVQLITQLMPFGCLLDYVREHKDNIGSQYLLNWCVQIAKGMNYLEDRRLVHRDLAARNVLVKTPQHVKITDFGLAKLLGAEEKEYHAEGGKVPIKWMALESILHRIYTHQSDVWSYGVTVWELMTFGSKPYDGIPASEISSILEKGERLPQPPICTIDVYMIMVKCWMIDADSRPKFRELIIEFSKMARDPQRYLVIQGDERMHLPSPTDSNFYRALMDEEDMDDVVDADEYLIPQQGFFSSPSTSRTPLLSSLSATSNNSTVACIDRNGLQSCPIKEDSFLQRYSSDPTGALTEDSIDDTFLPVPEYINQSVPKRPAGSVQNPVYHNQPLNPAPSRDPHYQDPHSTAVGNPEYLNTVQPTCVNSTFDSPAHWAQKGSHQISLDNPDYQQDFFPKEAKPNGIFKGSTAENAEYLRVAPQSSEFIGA
T2 sequence (P35968 20-1356): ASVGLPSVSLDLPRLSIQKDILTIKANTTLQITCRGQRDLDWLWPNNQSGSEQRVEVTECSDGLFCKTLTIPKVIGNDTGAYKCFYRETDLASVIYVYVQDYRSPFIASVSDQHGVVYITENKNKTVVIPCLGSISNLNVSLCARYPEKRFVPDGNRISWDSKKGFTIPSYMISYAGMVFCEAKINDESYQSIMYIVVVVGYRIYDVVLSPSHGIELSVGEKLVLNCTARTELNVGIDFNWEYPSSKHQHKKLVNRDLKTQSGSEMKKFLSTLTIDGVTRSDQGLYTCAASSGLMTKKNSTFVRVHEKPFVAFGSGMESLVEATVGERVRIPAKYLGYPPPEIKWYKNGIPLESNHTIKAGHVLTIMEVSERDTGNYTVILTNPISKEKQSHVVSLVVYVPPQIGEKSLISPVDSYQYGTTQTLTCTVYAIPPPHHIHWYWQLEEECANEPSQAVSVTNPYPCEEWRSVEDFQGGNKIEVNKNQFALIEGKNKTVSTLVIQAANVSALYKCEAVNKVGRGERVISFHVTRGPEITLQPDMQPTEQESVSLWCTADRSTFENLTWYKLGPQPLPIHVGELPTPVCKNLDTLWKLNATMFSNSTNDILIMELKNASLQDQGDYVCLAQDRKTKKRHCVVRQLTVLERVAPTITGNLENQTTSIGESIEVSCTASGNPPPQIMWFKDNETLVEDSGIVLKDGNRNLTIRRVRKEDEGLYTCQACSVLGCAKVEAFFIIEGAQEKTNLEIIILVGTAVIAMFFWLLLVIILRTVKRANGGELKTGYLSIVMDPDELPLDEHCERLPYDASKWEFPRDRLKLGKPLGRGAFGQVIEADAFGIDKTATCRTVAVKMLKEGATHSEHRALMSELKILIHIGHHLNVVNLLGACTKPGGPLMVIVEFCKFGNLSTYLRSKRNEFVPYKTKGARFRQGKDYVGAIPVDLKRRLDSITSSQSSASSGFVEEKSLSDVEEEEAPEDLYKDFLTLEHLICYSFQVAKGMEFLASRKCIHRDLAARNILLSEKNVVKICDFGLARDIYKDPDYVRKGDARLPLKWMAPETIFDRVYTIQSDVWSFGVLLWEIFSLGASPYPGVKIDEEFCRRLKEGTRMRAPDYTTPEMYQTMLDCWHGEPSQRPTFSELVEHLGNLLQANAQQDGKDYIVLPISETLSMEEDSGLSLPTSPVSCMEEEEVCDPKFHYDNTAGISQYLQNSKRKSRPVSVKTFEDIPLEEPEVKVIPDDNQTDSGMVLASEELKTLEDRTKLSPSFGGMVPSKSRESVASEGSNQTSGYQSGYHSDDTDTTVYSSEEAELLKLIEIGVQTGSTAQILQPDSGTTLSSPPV

`Cc1occ(Sc2nc3ccccc3c(=O)n2-c2ccccc2)c1C1=NNC(c2ccc(Cl)cc2)C1` (stereo not shown) [Compound 7, 2-{{{4-[5-(4-Chlorophenyl)-4,5-dihydro-1H-pyrazol-3-yl]-5-methylfuran-3-yl}thio}}-3-phenylquinazolin-4(3H)-one]: the IC50 was 27.9 ± 1.9 µM in data set [1] (setting [8]), 48.9 ± 2.6 µM in data set [2] (setting [9]), 45.8 ± 2.5 µM in data set [3] (setting [10]) and over 100 µM in data set [4] (setting [11]). The “cytotoxic activity in words (SAR study)” value in data set [5] (setting [12]) is listed as “weak activity”.
For the compound `C#Cc1cccc(Nc2ncnc3cc(OCCOC)c(OCCOC)cc23)c1` [Erlotinib, reference compound], the 50% inhibitory concentration (IC50) in data set [1] (HepG2, read-out: IC50 (mean ± SD)) is 4.5 ± 0.2 µM; in data set [2] (HCT-116, read-out: IC50 (mean ± SD)), 5.23 ± 0.3 µM; in data set [3] (MCF7, read-out: IC50 (mean ± SD)), 4.17 ± 0.2 µM; in data set [4] (WI-38, read-out: IC50 (mean ± SD)) it was 6.72 ± 0.5 µM.
As to `Cc1occ(Sc2nc3ccccc3c(=O)n2-c2ccccc2)c1C1=NN(C(N)=S)C(c2ccc(F)cc2)C1` (stereo not shown) [Compound 8b], the half-inhibitory concentration (IC50) in data set [1] (setting [8]) is 81.5 ± 4.2 µM; in data set [2] (setting [9]), 93.4 ± 4.7 µM; in data set [3] (setting [10]), 76.1 ± 3.9 µM; in data set [4] (setting [11]), 26.9 ± 1.8 µM. Also, the “cytotoxic activity in words (SAR study)” value in data set [5] (setting [12]) was “Weak activity”.
Regarding `CCOC(=O)C1C(=O)C=C(c2c(Sc3nc4ccccc4c(=O)n3-c3ccccc3)coc2C)CC1c1ccc(F)cc1` (stereo not shown) [Compound 4, Ethyl 4′-fluoro-5-{2-methyl-4-[(4-oxo-3-phenyl-3,4-dihydroquinazolin-2-yl)thio]furan-3-yl}-3-oxo-1,2,3,6-tetrahydro-[1,1′-biphenyl]-2-carboxylate], the IC50 in data set [1] (setting [8]) was 64.9 ± 3.5 µM; in data set [2] (setting [9]) it was 87.8 ± 4.3 µM; in data set [3] (setting [10]) it was 62.1 ± 3.5 µM; in data set [4] (setting [11]) it was 44.9 ± 2.7 µM. Also, the “cytotoxic activity in words (SAR study)” value in data set [5] (setting [12]) is listed as “Weak activity”.
Regarding `Cc1occ(Sc2nc3ccccc3c(=O)n2-c2ccccc2)c1C(=O)C=Cc1ccc(F)cc1` [Compound 3b, 2-{{{4-[3-(4-Fluorophenyl)acryloyl]-5-methylfuran-3-yl}thio}}-3-phenylquinazolin-4(3H)-one], the IC50 was 56 ± 3.2 µM in data set [1] (setting [8]), 83.3 ± 4.1 µM in data set [2] (setting [9]), 71.1 ± 3.8 µM in data set [3] (setting [10]) and 28.8 ± 1.9 µM in data set [4] (setting [11]).
For the compound `CC(=O)c1c(Sc2nc3ccccc3c(=O)n2-c2ccccc2)coc1C` [Compound 2, 2-[(4-Acetyl-5-methylfuran-3-yl)thio]-3-phenylquinazolin-4(3H)-one], the IC50 in data set [1] (setting [8]) turned out to be 47.8 ± 2.8 µM; in data set [2] (setting [9]), 78.7 ± 3.7 µM; in data set [3] (setting [10]), 54.9 ± 3.2 µM; in data set [4] (setting [11]) it was 36.9 ± 2.4 µM. In addition, the “cytotoxic activity in words (SAR study)” value in data set [5] is “Weak activity”.
Regarding `O=C(CCl)Sc1nc2ccccc2c(=O)n1-c1ccccc1` [Compound 1, S-(4-Oxo-3-phenyl-3,4-dihydroquinazolin-2-yl) 2-chloroethanethioate], the IC50 stood at 13.2 ± 1.1 µM in data set [1] (setting [8]); 19.6 ± 1.4 µM in data set [2] (setting [9]); 10.6 ± 0.9 µM in data set [3] (setting [10]); 75.4 ± 3.8 µM in data set [4] (setting [11]); 25.5 ± 1.2 µM in data set [6]; 70.2 ± 2.55 µM in data set [7]. The “cytotoxic activity in words (SAR study)” value in data set [5] is “Moderate activity”.
In the case of `Cc1occ(Sc2nc3ccccc3c(=O)n2-c2ccccc2)c1C1=NN(c2nc(Cl)cs2)C(c2ccc(Cl)cc2)C1` (stereo not shown) [Compound 9, 2-{{{4-[5-(4-Chlorophenyl)-1-(4-chlorothiazol-2-yl)-4,5-dihydro-1H-pyrazol-3-yl]-5-methylfuran-3-yl}thio}}-3-phenylquinazolin-4(3H)-one], the IC50 in data set [1] (setting [8]) amounted to 44 ± 2.5 µM; in data set [2] (setting [9]), 74.7 ± 3.9 µM; in data set [3] (setting [10]), 58 ± 3.4 µM; in data set [4] (setting [11]), 39.8 ± 2.4 µM. Moreover, in data set [5] (setting [12]), the “cytotoxic activity in words (SAR study)” value is “weak activity”.
`COc1ccc(-c2cc(-c3c(Sc4nc5ccccc5c(=O)n4-c4ccccc4)coc3C)ncc2C#N)cc1` [Compound 5, 4-(4-Methoxyphenyl)-6-{2-methyl-4-[(4-oxo-3-phenyl-3,4-dihydroquinazolin-2-yl)thio]furan-3-yl}nicotinonitrile]: the half-inhibitory concentration (IC50) in data set [1] (setting [8]) was 38.5 ± 2.3 µM; in data set [2] (setting [9]), 66.3 ± 3.5 µM; in data set [3] (setting [10]), 50 ± 2.8 µM; in data set [4] (setting [11]) it was 17.8 ± 1.4 µM. The “cytotoxic activity in words (SAR study)” value in data set [5] (setting [12]) is recorded as “Weak activity”.
In the case of `Cc1occ(Sc2nc3ccccc3c(=O)n2-c2ccccc2)c1C(=O)C=Cc1ccc(Cl)cc1` [Compound 3a, 2-{{{4-[3-(4-Chlorophenyl)acryloyl]-5-methylfuran-3-yl}thio}}-3-phenylquinazolin-4(3H)-one], the IC50 in data set [1] (setting [8]) was determined as 21.8 ± 1.6 µM; in data set [2] (setting [9]), 34.1 ± 2.1 µM; in data set [3] (setting [10]), 37.9 ± 2.2 µM; in data set [4] (setting [11]) it was 68.7 ± 3.6 µM.
With `Cc1occ(Sc2nc3ccccc3c(=O)n2-c2ccccc2)c1C1CC(c2ccc(F)cc2)Nc2ccccc2N1` (stereo not shown) [Compound 6a, 2-{{{4-[4-(4-Fluorophenyl)-2,3,4,5-tetrahydro-1H-benzo[b][1,4]diazepin-2-yl]-5-methylfuran-3-yl}thio}}-3-phenylquinazolin-4(3H)-one], the half-maximal inhibitory concentration (IC50) in data set [1] (setting [8]) amounted to 35.8 ± 2.1 µM; in data set [2] (setting [9]), 52.5 ± 3.1 µM; in data set [3] (setting [10]), 33.6 ± 2 µM; in data set [4] (setting [11]), 85.1 ± 4.2 µM. Further, the “cytotoxic activity in words (SAR study)” value in data set [5] (setting [12]) is given as “Weak activity”.
Take `COc1ccc(C=CC(=O)c2c(Sc3nc4ccccc4c(=O)n3-c3ccccc3)coc2C)cc1` [Compound 3c, 2-{{{4-[3-(4-Methoxyphenyl)acryloyl]-5-methylfuran-3-yl}thio}}-3-phenylquinazolin-4(3H)-one]: the figures for the IC50 in data set [2] (setting [9]), in data set [3] (setting [10]) and in data set [4] (setting [11]) were over 100 µM, 23.4 ± 1.6 µM and 53.2 ± 2.9 µM, respectively.
Take `Cc1occ(Sc2nc3ccccc3c(=O)n2-c2ccccc2)c1C(=O)C=Cc1ccco1` [Compound 3d, 2-{{{4-[3-(Furan-2-yl)acryloyl]-5-methylfuran-3-yl}thio}}-3-phenylquinazolin-4(3H)-one]: the IC50 in data set [1] (setting [8]) is 18.9 ± 1.4 µM; in data set [2] (setting [9]) it was 25.9 ± 1.7 µM; in data set [3] (setting [10]) it was 16 ± 1.3 µM; in data set [4] (setting [11]), over 100 µM.
On to `Cc1occ(Sc2nc3ccccc3c(=O)n2-c2ccccc2)c1C1=NN(C(N)=S)C(c2ccc(Cl)cc2)C1` (stereo not shown) [Compound 8a, 5-(4-Chlorophenyl)-3-{2-methyl-4-[(4-oxo-3-phenyl-3,4-dihydroquinazolin-2-yl)thio]furan-3-yl}-4,5-dihydro-1H-pyrazole-1-carbothioamide], for which the half-inhibitory concentration (IC50) in data set [1] (setting [8]) amounted to 9.68 ± 0.8 µM; in data set [2] (setting [9]) it was 57.1 ± 3.3 µM; in data set [3] (setting [10]) it was 8.29 ± 0.6 µM; in data set [4] (setting [11]) it was 63.2 ± 3.3 µM; in data set [6], 8.53 ± 0.25 µM; in data set [7], 46.2 ± 1.2 µM. Besides, the “cytotoxic activity in words (SAR study)” value in data set [5] (setting [12]) was “Excellent activity”.
Regarding `Cc1occ(Sc2nc3ccccc3c(=O)n2-c2ccccc2)c1C1=NN(C(=S)N=Cc2ccc(C=O)s2)C(c2ccc(F)cc2)C1` (stereo not shown) [Compound 10, 5-(4-Fluorophenyl)-N-[(5-formylthiophen-2-yl)methylene]-3-(2-methyl-4-{[4-oxo-3-phenyl-3,4-dihydroquinazolin-2-yl)thio]furan-3-yl}-4,5-dihydro-1H-pyrazole-1-carbothioamide], the IC50 in data set [1] (setting [8]) is 8.71 ± 0.7 µM; in data set [2] (setting [9]), 11.6 ± 0.9 µM; in data set [3] (setting [10]) it was 6.49 ± 0.4 µM; in data set [4] (setting [11]), 35.2 ± 2.2 µM; in data set [6], 0.51 ± 0.04 µM; in data set [7] it was 39.4 ± 1.35 µM. Besides, the “cytotoxic activity in words (SAR study)” value in data set [5] (setting [12]) was “Excellent activity”. The “selectivity EGFR over VEGFR-2” value in data set [6] (EGFR versus VEGFR-2) is “substantially more selective for EGFR than VEGFR-2”.
